Source: EP3263567A1, “CARBOXAMIDE-SUBSTITUTED PYRAZOLES AND TRI(HETERO)ARYL-PYRAZOLES FOR USE IN METHODS OF TREATING AND / OR PREVENTING CARDIOVASCULAR DISEASES AND / OR COMORBIDITIES THEREOF” (AiCuris Anti-infective Cures GmbH, priority 2016, dated 2018)

Tests used:
[1] = 10-day dose-range-finding study in dogs; format: in vivo
Experimental: For the dog study, single dose data are available at 3, 30 and 100 mg/kg and repeated dose data (10 days of treatment) are available at 30, 100 and 2 x 50 mg/kg. At a single dose of 30 mg/kg, no further increase in exposure or Cmax is apparent. In the 10-day DRF study (LPT Study No. 31586) it was investigated whether after multiple dosing any accumulation would be apparent and therefore dose levels of 30 and 100 mg/kg were selected in this study. In addition, the highest daily dose (i.e. 100 mg/kg) was also administered as 50 mg/kg twice daily (8-h interval) to investigate possible beneficial effects of BID dosing on overall exposure.

[2] = target: T1, Nav1.5 (Homo sapiens, UniProt Q14524); experiment: Whole-cell patch-clamp, Nav1.5 currents in stably transfected CHO cells; format: cell-based
T1 construct: expressed in transfected cells; host or cells: CHO (ATCC CCL-61), stably transfected; selection with Geneticin and Puromycin
Experimental: (§1) [drawing 92] i.e. 4-[5-[3-Chloro-5-(trifluoromethoxy) phenyl]-1-(pyridin-3-yl)-1H-pyrazol-3-yl]-5,6-dihydro-7H-pyrrolo[3,4-d]pyrimidin-7-one, was tested for its effects on human Nav1.5, Cav1.2, Kv1.5, and HCN4 currents recorded from stably transfected CHO cells. The effect of four concentrations of this compound on these currents was investigated.
The whole-cell patch-clamp technique was used to investigate the effect of Compound A on the currents of Nav1.5, Kv1.5, Cav1.2 and HCN4 channels, expressed in CHO cells (ATCC, CCL-61). Compound A was tested at concentrations of 200 nM, 600 nM, 2000 nM and 6000 nM. For all ion channels 0.1% DMSO was used as vehicle and ZD7288 as suitable blockers were applied to assure accuracy of the method. The selection antibiotics can be dervied from the Table below:
Concentrations of 200 nM, 600 nM, 2000 nM and 6000 nM of Compound A were tested. […]
(§2) The 35 mm culture dishes upon which cells were seeded at a density allowing single cells to be recorded were placed on the dish holder of the microscope and continuously perfused (at approximately 1 mL/min) with the bath solution described in section 4.7. […]
(§3) As soon as a stable seal could be established outward tail currents were measured upon pulses described in the Table below: […]
Values in Ampere (A) of the peak amplitudes of outward tail currents were generated for each voltage step. […] The recorded current amplitudes at the steady state level of current inhibition were compared to those from control conditions measured in the pre-treatment phase of the same cell. The amount of current block was calculated as percentage of control. To determine whether the observed current inhibition was due to Compound A-interaction with the respective ion channel or due to current rundown, these residual currents were compared to those measured in vehicle treated cells. Data from at least two individual experiments were collected and the corresponding mean values and standard deviations were calculated. […]

[3] = target: T2, Kv1.5 (Homo sapiens, UniProt P22460); experiment: Whole-cell patch-clamp, Kv1.5 currents in stably transfected CHO cells; format: cell-based; settings: summary statement
T2 construct: expressed in transfected cells; host or cells: CHO (ATCC CCL-61), stably transfected; selection with Hygromycin
Experimental: as §1
The whole-cell patch-clamp technique was used to investigate the effect of Compound A on the currents of Nav1.5, Kv1.5, Cav1.2 and HCN4 channels, expressed in CHO cells (ATCC, CCL-61). Compound A was tested at concentrations of 200 nM, 600 nM, 2000 nM and 6000 nM. […]
as §2, §3
Values in Ampere (A) of the peak amplitudes of outward tail currents were generated for each voltage step. […] The recorded current amplitudes at the steady state level of current inhibition were compared to those from control conditions measured in the pre-treatment phase of the same cell. The amount of current block was calculated as percentage of control. […]

[4] = Stability of compound A in solution; format: physicochemical
Experimental: The compound stock solutions were stored at 19°C to 30°C (room temperature). Test solutions were prepared freshly every day. Test solutions were prepared shortly before experimentation.
The Compound A stock solutions were prepared freshly every day of experimentation. Application of Compound A to the CHO cells was completed within one day. During this period, there was no observation indicating any instability of Compound A solved in vehicle. The effects observed on Nav1.5, Kv1.5, Cav1.2 and HCN4 channels of the Compound A dose formulations analyzed remained stable over several hours at room temperature.

T1 sequence (Q14524 whole entry): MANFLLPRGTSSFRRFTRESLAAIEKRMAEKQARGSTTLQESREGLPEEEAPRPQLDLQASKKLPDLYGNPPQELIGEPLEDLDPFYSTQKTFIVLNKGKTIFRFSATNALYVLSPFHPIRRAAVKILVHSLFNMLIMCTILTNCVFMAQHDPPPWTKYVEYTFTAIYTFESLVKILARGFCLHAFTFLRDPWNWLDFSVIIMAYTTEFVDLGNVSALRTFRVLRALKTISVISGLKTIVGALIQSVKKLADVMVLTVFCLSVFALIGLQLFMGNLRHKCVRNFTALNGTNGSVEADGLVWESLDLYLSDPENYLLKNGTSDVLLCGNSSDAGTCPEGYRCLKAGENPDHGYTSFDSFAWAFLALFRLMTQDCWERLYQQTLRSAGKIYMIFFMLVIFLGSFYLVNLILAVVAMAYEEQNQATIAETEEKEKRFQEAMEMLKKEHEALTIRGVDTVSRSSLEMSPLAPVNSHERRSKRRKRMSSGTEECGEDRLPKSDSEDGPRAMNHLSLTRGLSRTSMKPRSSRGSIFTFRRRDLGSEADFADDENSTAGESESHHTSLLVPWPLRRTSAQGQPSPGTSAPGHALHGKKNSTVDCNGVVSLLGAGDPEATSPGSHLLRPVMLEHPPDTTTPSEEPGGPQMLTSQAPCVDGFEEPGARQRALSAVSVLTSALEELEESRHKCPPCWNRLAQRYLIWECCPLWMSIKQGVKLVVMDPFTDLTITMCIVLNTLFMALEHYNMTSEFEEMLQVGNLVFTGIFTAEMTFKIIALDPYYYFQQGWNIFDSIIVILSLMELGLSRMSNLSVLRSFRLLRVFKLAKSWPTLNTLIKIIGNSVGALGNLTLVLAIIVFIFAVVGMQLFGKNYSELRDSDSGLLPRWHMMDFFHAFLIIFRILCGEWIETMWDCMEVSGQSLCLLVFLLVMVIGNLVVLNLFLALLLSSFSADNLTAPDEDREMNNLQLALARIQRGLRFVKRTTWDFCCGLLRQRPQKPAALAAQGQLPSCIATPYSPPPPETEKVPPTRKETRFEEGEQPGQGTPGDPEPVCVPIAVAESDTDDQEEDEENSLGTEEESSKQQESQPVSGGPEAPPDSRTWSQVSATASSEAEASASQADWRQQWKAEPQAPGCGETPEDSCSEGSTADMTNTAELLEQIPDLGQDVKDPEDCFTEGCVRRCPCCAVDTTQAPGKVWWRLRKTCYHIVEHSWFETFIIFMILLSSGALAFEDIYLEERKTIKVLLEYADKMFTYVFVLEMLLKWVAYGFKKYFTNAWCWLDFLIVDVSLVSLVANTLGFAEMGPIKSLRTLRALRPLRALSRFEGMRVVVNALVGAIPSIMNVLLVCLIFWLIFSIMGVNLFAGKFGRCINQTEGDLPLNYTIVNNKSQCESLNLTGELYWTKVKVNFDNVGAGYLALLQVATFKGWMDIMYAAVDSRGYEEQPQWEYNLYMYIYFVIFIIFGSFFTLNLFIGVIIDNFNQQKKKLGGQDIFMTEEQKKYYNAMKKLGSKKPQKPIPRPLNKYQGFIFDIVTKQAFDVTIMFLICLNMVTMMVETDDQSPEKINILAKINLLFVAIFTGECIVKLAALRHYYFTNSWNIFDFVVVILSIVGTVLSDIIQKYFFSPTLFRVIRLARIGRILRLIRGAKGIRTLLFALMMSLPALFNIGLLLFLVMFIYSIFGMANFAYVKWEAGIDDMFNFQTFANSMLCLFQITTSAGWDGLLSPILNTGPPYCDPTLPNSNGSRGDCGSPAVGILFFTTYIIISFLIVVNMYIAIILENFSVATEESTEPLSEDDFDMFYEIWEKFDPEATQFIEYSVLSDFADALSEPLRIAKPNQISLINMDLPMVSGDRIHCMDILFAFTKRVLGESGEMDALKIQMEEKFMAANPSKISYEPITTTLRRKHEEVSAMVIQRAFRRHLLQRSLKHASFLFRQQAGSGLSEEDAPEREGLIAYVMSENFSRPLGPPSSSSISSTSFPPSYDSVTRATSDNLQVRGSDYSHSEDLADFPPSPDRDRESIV
T2 sequence (P22460 whole entry): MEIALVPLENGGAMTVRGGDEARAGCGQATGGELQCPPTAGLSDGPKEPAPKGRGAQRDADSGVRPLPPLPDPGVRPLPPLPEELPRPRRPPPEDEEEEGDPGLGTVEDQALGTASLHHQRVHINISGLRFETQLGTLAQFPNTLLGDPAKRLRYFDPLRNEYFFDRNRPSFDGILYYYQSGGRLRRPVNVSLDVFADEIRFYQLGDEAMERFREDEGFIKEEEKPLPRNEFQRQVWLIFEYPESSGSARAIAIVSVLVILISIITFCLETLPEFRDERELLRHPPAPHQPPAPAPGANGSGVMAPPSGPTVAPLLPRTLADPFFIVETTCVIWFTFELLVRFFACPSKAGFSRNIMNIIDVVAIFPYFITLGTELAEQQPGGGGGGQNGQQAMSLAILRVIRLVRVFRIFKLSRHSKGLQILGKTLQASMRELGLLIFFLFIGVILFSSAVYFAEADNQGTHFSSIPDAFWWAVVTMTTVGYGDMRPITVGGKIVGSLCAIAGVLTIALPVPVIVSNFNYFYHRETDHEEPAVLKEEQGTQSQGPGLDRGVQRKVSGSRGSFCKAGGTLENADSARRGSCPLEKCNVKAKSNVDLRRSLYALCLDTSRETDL

Compound: O=C1NCc2c1ncnc2-c1cc(-c2cc(Cl)cc(OC(F)(F)F)c2)n(-c2cccnc2)n1 [Compound A, 4-[5-[3-Chloro-5-(trifluoromethoxy)phenyl]-1-(pyridin-3-yl)-1H-pyrazol-3-yl]-5,6-dihydro-7H-pyrrolo[3,4-d]pyrimidin-7-one]
- exposure on split dosing ([1]; 100 mg/kg as 2 x 50 mg/kg 8 hours apart): small increase in exposure
- test item related findings ([1]; 30, 100 and 2 x 50 mg/kg, 10 days): No clear and consistent test item related findings
- exposure on dose increase ([1]; 30 to 100 mg/kg, 10 days): did not reveal a further increase in exposure
- reduction of the current amplitude (Nav1.5, fast inactivated state) ([2]; at ≤ 6 µM): more than 30%
- IC50 ([2]; highest concentration tested 6,000 nM, read-out: IC50 (Nav1.5, fast inactivated state)): > 6 µM
- interaction with ion channels of Nav ([2]; summary statement): do not interact with other ion channels of Nav, Kav, and Cav substantially
- interaction with ion channels of Kav [3]: do not interact with other ion channels of Nav, Kav, and Cav substantially
- stability in aqueous and physiological fluids and organic solvents [4]: stable
- stability of dose formulations in bath solution ([4]; several hours at room temperature): no observations indicating any instability
